The test concerns the target T1, Cbl-b (truncated variant, UniProt number Q13191) (Homo sapiens, UniProt Q13191).
T1 construct: made in house
The test can be described thus: Cbl-b activity assay (TR-FRET, interaction of Cbl-b with UbcH5B-Ub). It counts as biochemical. From the text: As described in Biological Example 1A, a Cbl-b activity assay (Cbl-b inhibition assay) used to measure the IC50 values for Cbl-b inhibition uses a mixture comprising candidate compound, Cbl-b (truncated, with an Avitag, and biotinylated), a fluorescently-labeled E2 enzyme UbcH5B labelled with ubiquitin conjugated to BODIPY-fluorescein (UbcH5B-Ub), streptavidin-terbium, and assay buffer. In one embodiment, the Cbl-b activity assay (Cbl-b inhibition assay) used to measure IC50 for inhibition of Cbl-b uses the conditions described in Biological Example 1A with 12 nM Cbl-b. […] In another embodiment, the Cbl-b activity assay (Cbl-b inhibition assay) used to measure IC50 for inhibition of Cbl-b uses the conditions described in Biological Example 1B, with candidate compound, 0.125 nM Cbl-b (truncated, with an avitag, and biotinylated), fluorescently labelled inhibitor probe, and assay buffer. Displacement of the inhibitor probe indicates Cbl-b activity.
Candidate compounds isolated from screening assays were evaluated for their ability to bind and inhibit Cbl-b, an E3 ubiquitin-protein ligase.
The ability of candidate compounds to inhibit Cbl-b activity was measured by monitoring the interaction of Cbl-b with UbcH5B-Ub in the presence of the candidate compound. A truncated variant of Cbl-b (UniProt number Q13191; SEQ ID NO:1) containing an Avitag at its N-terminus was co-expressed with BirA biotin ligase and purified using a standard protocol (see Dou et al., Nature Structural and Molecular Biology 8: 982-987, 2013; Avidity LLC).
Fluorescently labeled UbcH5B-Ub was prepared by conjugating ubiquitin (Ub), labeled at its N-terminus with Bodipy-Fluorescein, to UbcH5B, an E2 enzyme, harboring a cysteine to lysine mutation at position 85. This mutation is similar to a mutation that was previously reported (see Dou et al., Nature Structural and Molecular Biology 8: 982-987, 2013). Cbl-b activity assays were performed in a 384-well plate at room temperature in a 10 μL reaction volume by pre-incubating 12 nM Cbl-b (final concentration) in an assay buffer containing 50 mM HEPES pH 7.0, 100 mM NaCl, 0.01% Triton X-100, 0.01% BSA, and 1 mM DTT in the presence of a candidate compound in 1% DMSO (final concentration, High Conditions) for one hour. After incubation in the presence of the candidate compound, the plate was incubated for an additional 1.5 hours in the presence of 60 nM Src kinase with 1 mM ATP and 5 mM MgCl2 (final concentrations). Alternatively, compounds were tested as described above with assay buffer containing 50 mM NaCl instead of 100 mM NaCl and 30 nM Src kinase instead of 60 nM Src kinase (Low Conditions). Src kinase was prepared as previously described (see Kobashigawa et al., Proc Natl Acad Sci USA, 108: 20579-20584, 2011). […] The plate was incubated for one hour. Following the one hour incubation, the plates were read for TR-FRET signal at 520/620 nm using Envision plate reader (Perkin Elmer). The presence of a FRET signal that indicated Cbl-b was not inhibited by the compound candidate. The absence of a FRET signal indicated Cbl-b was inhibited by the compound candidate and was therefore a Cbl-b inhibitor.
The resulting data for the Cbl-b activity assays were analyzed using standard methods to report the IC50 values of the tested compounds (Tables 3-4). The resulting data for the Cbl-b binding assay was solvent corrected and double-referenced prior to analysis. All data were globally fit to a steady-state affinity and kinetic binding model where applicable. Compounds were ranked into bins A through D as follows for IC50: A indicates <0.1 μM, B indicates 0.1 μM≤IC50<1 μM, C indicates 1 μM≤IC50<5 μM, and D indicates 5 μM≤IC50.
A general note: In TR-FRET formats the signal depends on donor and acceptor labels being close together.

Setting [1] is: Biological Example 1A, low or high conditions not stated, read-out: IC50 values in the Cbl-b inhibition assay of Biological Example 1A.
Where [2] appears, read: high conditions: 100 mM NaCl, 60 nM Src kinase, 12 nM Cbl-b, read-out: Cbl-b activity IC50.
[3] abbreviates: low conditions: 50 mM NaCl, 30 nM Src kinase, 12 nM Cbl-b, read-out: Cbl-b activity IC50.

Where two headings read alike, the source gives them in different places.

T1 sequence (Q13191 36-427): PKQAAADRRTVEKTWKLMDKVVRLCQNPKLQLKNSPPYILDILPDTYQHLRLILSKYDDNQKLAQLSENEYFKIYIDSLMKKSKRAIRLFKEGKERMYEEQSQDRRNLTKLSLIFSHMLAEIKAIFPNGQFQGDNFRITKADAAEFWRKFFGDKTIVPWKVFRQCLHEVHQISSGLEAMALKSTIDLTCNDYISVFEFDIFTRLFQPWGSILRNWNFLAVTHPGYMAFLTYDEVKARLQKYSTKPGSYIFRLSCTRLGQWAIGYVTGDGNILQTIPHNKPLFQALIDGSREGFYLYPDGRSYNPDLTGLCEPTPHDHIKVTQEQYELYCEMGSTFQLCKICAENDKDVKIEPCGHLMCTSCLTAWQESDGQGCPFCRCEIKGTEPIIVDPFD

As a reminder, the IC50 is the concentration that gives 50% inhibition. For `C[C@H](Sc1nncn1C)c1cccc(NC(=O)N2Cc3cccc(O)c3C2)c1` [Example 45, (S)-4-hydroxy-N-(3-(1-((4-methyl-4H-1,2,4-triazol-3-yl)thio)ethyl)phenyl)isoindoline-2-carboxamide], the IC50 by setting is: under setting [1], 0.1 to 1 µM; under setting [2], 0.1 to 1 µM.

As to `C[C@H](Sc1nncn1C)c1cccc(NC(=O)N2CCCc3ccccc32)c1` [Example 8, (S)—N-(3-(1-((4-methyl-4H-1,2,4-triazol-3-yl)thio)ethyl)phenyl)-3,4-dihydroquinoline-1(2H)-carboxamide], under setting [2], the IC50 is at least 5 µM. As to `C[C@H](Sc1nncn1C)c1cccc(-n2cc(-c3ccc(C#N)cc3)nn2)c1` [Example 89, (S)-4-(1-(3-(1-(4-methyl-4H-1,2,4-triazol-3-ylthio)ethyl)phenyl)-1H-1,2,3-triazol-4-yl)benzonitrile], the IC50 is 1 to 5 µM under setting [1] and 1 to 5 µM under setting [2]. On to `C[C@H](Sc1nncn1C)c1cccc(NC(=O)N2CCOC(CC(F)(F)F)C2)c1` (stereo partly drawn) [Example 131, N-(3-((S)-1-((4-methyl-4H-1,2,4-triazol-3-yl)thio)ethyl)phenyl)-2-(2,2,2-trifluoroethyl)morpholine-4-carboxamide], for which, under setting [2], the half-maximal inhibitory concentration (IC50) was at least 5 µM. Same read-out and setting: under `CCn1cc(CN(C)C(=O)Nc2cccc([C@H](C)Sc3nncn3C)c2)cn1` [Example 152, (S)-1-((1-ethyl-1H-pyrazol-4-yl)methyl)-1-methyl-3-(3-(1-((4-methyl-4H-1,2,4-triazol-3-yl)thio)ethyl)phenyl)urea] stands at least 5 µM. `C[C@H](Cc1nncn1C)c1cccc(-c2n[nH]c3c(N4CC[C@H](O)C4)cc(C(F)(F)F)nc23)c1` [Example 111, (S)-1-(3-(3-((R)-1-(4-methyl-4H-1,2,4-triazol-3-yl)propan-2-yl)phenyl)-5-(trifluoromethyl)-1H-pyrazolo[4,3-b]pyridin-7-yl)pyrrolidin-3-ol]: the IC50 under setting [2] was in the range of 0.1 to 1 µM.

In the case of `C[C@H](Sc1nncn1C)c1cccc(NC(=O)Nc2ccc(S(=O)(=O)N(C)C)cc2)c1` [Example 158, (S)—N,N-dimethyl-4-(3-(3-(1-((4-methyl-4H-1,2,4-triazol-3-yl)thio)ethyl)phenyl)ureido)benzenesulfonamide], the IC50 under setting [2] was at least 5 µM. For the molecule `C[C@H](Sc1nncn1C)c1cccc(NC(=O)N2CCC2)c1` [Example 164, (S)—N-(3-(1-(4-methyl-4H-1,2,4-triazol-3-ylthio)ethyl)phenyl)azetidine-1-carboxamide], the IC50 under setting [2] was at least 5 µM. On the same count and under the same terms, in the case of `C[C@H](Sc1nncn1C)c1cccc(NC(=O)Nc2ccc(CC(=O)N(C)C)cc2)c1` [Example 150, (S)—N,N-dimethyl-2-(4-(3-(3-(1-((4-methyl-4H-1,2,4-triazol-3-yl)thio)ethyl)phenyl)ureido)phenyl)acetamide] it was at least 5 µM.

Regarding `C[C@H](Sc1nncn1C)c1cccc(-n2cc(-c3cccc(CO)c3)nn2)c1` [Example 92, (S)-(3-(1-(3-(1-(4-methyl-4H-1,2,4-triazol-3-ylthio)ethyl)phenyl)-1H-1,2,3-triazol-4-yl)phenyl)methanol], the IC50 is, setting by setting: under setting [1], at least 5 µM; under setting [2], at least 5 µM.

Turning to `CN1CC2(C1)CN(C(=O)Nc1cccc(C3(Cc4nncn4C)COC3)c1)c1ncccc1O2` [Example 29, 1-methyl-N-(3-(3-((4-methyl-4H-1,2,4-triazol-3-yl)methyl)oxetan-3-yl)phenyl)spiro[azetidine-3,2′-pyrido[3,2-b][1,4]oxazine]-4′(3′H)-carboxamide], under setting [2], the IC50 is below 0.1 µM. On the same count and under the same terms, under `C[C@H](Sc1nncn1C)c1cccc(NC(=O)N2CC(S(C)(=O)=O)C2)c1` [Example 134, 3-methanesulfonyl-N-[3-[(1S)-1-[(4-methyl-4H-1,2,4-triazol-3-yl)sulfanyl]ethyl]phenyl]azetidine-1-carboxamide] stands at least 5 µM; under `C[C@H](Sc1nncn1C)c1cccc(NC(=O)NC2CCCN(C)C2)c1` (stereo partly drawn) [Example 159, 1-(3-((S)-1-((4-methyl-4H-1,2,4-triazol-3-yl)thio)ethyl)phenyl)-3-(1-methylpiperidin-3-yl)urea], at least 5 µM.

Consider `CC(Sc1nncn1C)c1cccc(C(=O)Nc2ccccc2)c1` (centres unmarked) [Example 33, 3-(1-((4-methyl-4H-1,2,4-triazol-3-yl)thio)ethyl)-N-phenylbenzamide], for which, under setting [3], the IC50 was at least 5 µM.

Take `CC(Sc1nncn1C)c1cccc(C(=O)Nc2cccc(C(F)(F)F)n2)c1` (centres unmarked) [Example 1, 3-(1-((4-methyl-4H-1,2,4-triazol-3-yl)thio)ethyl)-N-(6-(trifluoromethyl)pyridin-2-yl)benzamide]: the IC50 runs as follows: under setting [1], at least 5 µM; under setting [3], at least 5 µM. Consider `C[C@@H](Sc1nncn1C)c1cccc(-c2n[nH]c3ccccc23)c1` [Example 108, (R)-3-(3-(1-((4-methyl-4H-1,2,4-triazol-3-yl)thio)ethyl)phenyl)-1H-indazole], for which the IC50 by setting is: under setting [1], 1 to 5 µM; under setting [2], 1 to 5 µM. As to `COC(=O)C1(C(F)(F)F)CCN(C(=O)Nc2cccc([C@H](C)Cc3nncn3C)c2)C1` (stereo partly drawn) [Example 11, Methyl 1-((3-((R)-1-(4-methyl-4H-1,2,4-triazol-3-yl)propan-2-yl)phenyl)carbamoyl)-3-(trifluoromethyl)pyrrolidine-3-carboxylate], the IC50 under setting [1] lay in the range of 1 to 5 µM and the IC50 under setting [2] was 1 to 5 µM. Consider `C[C@H](Sc1nncn1C)c1cccc(NC(=O)N2CCOC(c3ncon3)C2)c1` (stereo partly drawn) [Example 154, N-(3-((S)-1-((4-methyl-4H-1,2,4-triazol-3-yl)thio)ethyl)phenyl)-2-(1,2,4-oxadiazol-3-yl)morpholine-4-carboxamide], for which, under setting [2], the IC50 is at least 5 µM. The same measure, in the same setting: in the case of `C[C@H](Sc1nncn1C)c1cccc(NC(=O)N2CC3(CCCO3)C2)c1` [Example 138, N-[3-[(1S)-1-[(4-methyl-4H-1,2,4-triazol-3-yl)sulfanyl]ethyl]phenyl]-5-oxa-2-azaspiro[3.4]octane-2-carboxamide] it was at least 5 µM. On to `C[C@H](Sc1nncn1C)c1cccc(-c2cc(-c3ccc(CO)cc3)no2)c1` [Example 64, (S)-(4-(5-(3-(1-(4-methyl-4H-1,2,4-triazol-3-ylthio)ethyl)phenyl)isoxazol-3-yl)phenyl)methanol], for which the IC50 lay in the range of 1 to 5 µM under setting [1] and 1 to 5 µM under setting [2]. Consider `C[C@H](Sc1nncn1C)c1cccc(-n2ncc(-c3cccc(C#N)c3)n2)c1` [Example 97, (S)-3-(2-(3-(1-(4-methyl-4H-1,2,4-triazol-3-ylthio)ethyl)phenyl)-2H-1,2,3-triazol-4-yl)benzonitrile], for which the half-inhibitory concentration (IC50) fell in the range of 1 to 5 µM under setting [1] and 1 to 5 µM under setting [2]. Consider `CC1CN(C(=O)Nc2cccc([C@H](C)Sc3nncn3C)c2)CC(=O)N1C` (stereo partly drawn) [Example 123, 3,4-dimethyl-N-(3-((S)-1-((4-methyl-4H-1,2,4-triazol-3-yl)thio)ethyl)phenyl)-5-oxopiperazine-1-carboxamide], for which, under setting [2], the IC50 is at least 5 µM.

For `Cn1cnnc1C(F)(F)[C@](C)(F)c1cccc(NC(=O)N2CCOc3cccnc32)c1` [Example 24, (R)—N-(3-(1,1,2-trifluoro-1-(4-methyl-4H-1,2,4-triazol-3-yl)propan-2-yl)phenyl)-2,3-dihydro-4H-pyrido[3,2-b][1,4]oxazine-4-carboxamide], under setting [2], the IC50 fell in the range of 0.1 to 1 µM.

Take `C[C@H](Sc1nncn1C)c1cccc(NC(=O)N2CCC3(CNC(=O)C3)C2)c1` (stereo partly drawn) [Example 139, N-(3-((S)-1-((4-methyl-4H-1,2,4-triazol-3-yl)thio)ethyl)phenyl)-8-oxo-2,7-diazaspiro[4.4]nonane-2-carboxamide]: the IC50 under setting [2] was at least 5 µM.

Values taken from patent US12653809B2, “Urea, amide, and substituted heteroaryl compounds for CBL-B inhibition” (Nurix Therapeutics, Inc., priority 2019, dated 2026).
